# In paper PMC10763754 (Science Advances, 2021):
# Entries after “also recorded” stand apart in the source; their conditions may differ.
# Biological target: CDC34A-ubiquitin complex (Homo sapiens, UniProt P0CG48+P49427)
# Assay: biochemical
# Type: binding
# Conditions: not given
# CDC34A-ubiquitin complex, sequence (P49427 whole entry, other chains not shown): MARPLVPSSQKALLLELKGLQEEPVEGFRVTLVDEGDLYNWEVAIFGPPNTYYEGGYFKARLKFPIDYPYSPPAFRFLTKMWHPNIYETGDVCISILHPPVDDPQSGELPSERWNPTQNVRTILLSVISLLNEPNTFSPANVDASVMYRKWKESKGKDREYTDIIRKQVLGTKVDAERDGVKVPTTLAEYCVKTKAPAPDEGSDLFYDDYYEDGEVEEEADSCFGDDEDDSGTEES
fold improvement in TR-FRET potency compared to hit 1 [fold],activity in the TR-FRET assay (in words),fold increase in TR-FRET potency relative to parent 2ab [fold],EC50 [µM],fold worse than CC0651 in the TR-FRET screen assay [fold],Compound
27,–,–,–,–,COCC(=O)N1CCC(Cc2ccc(-c3cc(Cl)cc(Cl)c3)cc2)(C(=O)NC(C)C)CC1 [2aa]
> 80,–,–,–,–,CCNC(=O)C1(Cc2ccc(-c3cc(Cl)cc(Cl)c3)cc2)CCN(C(=O)COC)CC1 [2ab]
–,lacked activity,–,–,–,COCC(=O)N1CCC(Cc2ccc(-c3cc(Cl)cc(Cl)c3)cc2)(C(N)=O)CC1 [2ac]
–,–,10,–,–,CCNC(=O)C1(Cc2ccc(-c3cc(Cl)cc(Cl)c3)cc2)CCN(C(=O)OCC(C)C)CC1 [2db]
–,abolished TR-FRET activity,–,–,–,COCC(=O)N1CCC(Cc2ccc(-c3cc(Cl)cc(Cl)c3)cc2)(NC(C)=O)CC1 [3a]
–,abolished TR-FRET activity,–,–,–,CCC(=O)NC1(Cc2ccc(-c3cc(Cl)cc(Cl)c3)cc2)CCN(C(=O)COC)CC1 [3b]
–,abolished activity,–,–,–,COCC(=O)N1CCC(Cc2ccc(-c3cc(Cl)cc(Cl)c3)cc2)(c2nnc(C)o2)CC1 [4a]
–,abolished activity,–,–,–,Cc1nnc(C2(Cc3ccc(-c4cc(Cl)cc(Cl)c4)cc3)CCN(C(=O)COc3ccccc3)CC2)o1 [4b]
–,–,–,327,10,COCC(=O)N1CCC(Cc2ccc(-c3cccc(C)c3)cc2)(C(=O)NC(C)C)CC1 [compound 1]
–,completely inactive,–,–,–,COCC(=O)N1CCC(O)(c2ccc(-c3cc(Cl)cc(Cl)c3)cc2)CC1 [compound 6]
–,complete abrogation of activity,–,–,–,CCCCCN1CCC(Cc2ccc(-c3cc(Cl)cc(Cl)c3)cc2)(C(=O)OCC)CC1 [compound 7]
–,lacked activity,–,–,–,COCC(=O)N1CCC(Cc2ccc(-c3cc(Cl)cc(Cl)c3)cc2)(C(=O)O)CC1 [compound 12]

Compound,fold improvement in TR-FRET potency compared to hit 1 [fold],activity in the TR-FRET assay (in words),fold increase in TR-FRET potency relative to parent 2ab [fold],EC50 [µM],fold worse than CC0651 in the TR-FRET screen assay [fold]
COCC(=O)N1CCC(Cc2ccc(-c3cc(Cl)cc(Cl)c3)cc2)(C(=O)NCCO)CC1 [2ai],–,abrogated activity; also recorded: complete loss of activity,–,–,–
COCC(=O)N1CCC(Cc2ccc(-c3cc(Cl)cc(Cl)c3)cc2)(C(=O)NC[C@@H](C)O)CC1 [2at],–,abrogated activity; also recorded: complete loss of activity,–,–,–
COCC(=O)N1CCC(Cc2ccc(-c3cc(Cl)cc(Cl)c3)cc2)(C(=O)NC[C@@H](O)CO)CC1 [2au],–,abrogated activity; also recorded: complete loss of activity,–,–,–

# Same assay, conditions: TR-FRET EC50
row,EC50 [µM],Compound
1,12,COCC(=O)N1CCC(Cc2ccc(-c3cc(Cl)cc(Cl)c3)cc2)(C(=O)NC(C)C)CC1 [2aa]
2,4,CCNC(=O)C1(Cc2ccc(-c3cc(Cl)cc(Cl)c3)cc2)CCN(C(=O)COC)CC1 [2ab]
3,20,CNC(=O)C1(Cc2ccc(-c3cc(Cl)cc(Cl)c3)cc2)CCN(C(=O)COC)CC1 [2ad]
4,4,CCCNC(=O)C1(Cc2ccc(-c3cc(Cl)cc(Cl)c3)cc2)CCN(C(=O)COC)CC1 [2ae]
5,7,COCC(=O)N1CCC(Cc2ccc(-c3cc(Cl)cc(Cl)c3)cc2)(C(=O)NCC2CC2)CC1 [2ah]
6,26,CCCCCNC(=O)C1(Cc2ccc(-c3cc(Cl)cc(Cl)c3)cc2)CCN(C(=O)COC)CC1 [2ak]
7,5,COCC(=O)N1CCC(Cc2ccc(-c3cc(Cl)cc(Cl)c3)cc2)(C(=O)NC2CC2)CC1 [2al]
8,15,COCC(=O)N1CCC(Cc2ccc(-c3cc(Cl)cc(Cl)c3)cc2)(C(=O)NC(C)(C)C)CC1 [2as]
9,3,COCC(=O)N1CCC(Cc2ccc(-c3cc(Cl)cc(Cl)c3)cc2)(C(=O)N2CCCC2)CC1 [2aα]
10,3,COCC(=O)N1CCC(Cc2ccc(-c3cc(Cl)cc(Cl)c3)cc2)(C(=O)N2CCOCC2)CC1 [2aζ]
11,1,COCC(=O)N1CCC(Cc2ccc(-c3cc(Cl)cc(Cl)c3)cc2)(C(=O)N2CCCCC2)CC1 [2aη]
12,2,CCNC(=O)C1(Cc2ccc(-c3cc(Cl)cc(Cl)c3)cc2)CCN(C(=O)CCOC)CC1 [2cb]
13,0.4,CCNC(=O)C1(Cc2ccc(-c3cc(Cl)cc(Cl)c3)cc2)CCN(C(=O)OCC(C)C)CC1 [2db]
14,17 to 23,CCNC(=O)C1(Cc2ccc(-c3cc(Cl)cc(Cl)c3)cc2)CCN(C(=O)[C@H]2CCCO2)CC1 [2eb]
15,17 to 23,CCNC(=O)C1(Cc2ccc(-c3cc(Cl)cc(Cl)c3)cc2)CCN(C(=O)[C@@H]2CCCO2)CC1 [2fb]
16,2,CCNC(=O)C1(Cc2ccc(-c3cc(Cl)cc(Cl)c3)cc2)CCN(C(=O)c2ccccc2)CC1 [2gb]

# Biological target: CDC34A (Homo sapiens, UniProt P0CG48+P49427)
# Assay: not given
# Conditions: cited from earlier work
# CDC34A, sequence (P49427 whole entry, other chains not shown): as above
row,Compound,potency of CC0651 in vitro
1,COCC(=O)N[C@@H](Cc1ccc(-c2cc(Cl)cc(Cl)c2)cc1)[C@H](O)[C@@H](O)C(=O)O [CC0651],~ 5 μM
